Patent US12187742B2 (XRAD Therapeutics, Inc., priority 2018, dated 2025)

Key:
ATM = ATM (Homo sapiens (Human), UniProt Q13315); assay: ATM in Cell Western Assay (pKAP1 in etoposide-treated MCF-7 cells); assay type: cell-based; settings: MCF-7 cells, etoposide 100 μM, 1 hr, pKAP1 readout
Summary of the method: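 After paraformaldehyde fixation and Triton X-100 permeabilization, immunostained plates were read by infrared scanning (ODYSSEY CLx). Compound was given as 10 doses, 3-fold dilutions from a 1 μM final top concentration.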

DNA-PK = DNA-PK (Homo sapiens (Human), UniProt P78527); assay: DNA-PK Enzyme-Linked Immunosorbent Assay (phosphorylation of GST-p53 (1-101) peptide); assay type: biochemical; settings: ELISA, ATP 20 μM
Summary of the method: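 Inhibition measured by 450 nm absorbance after HRP/TMB detection of phospho-Ser15 on immobilized GST-p53 (1-101). The kinase reaction used 0.1 μg/mL DNA-PK and 20 μM ATP, 1 h at 25 °C. Ten 3-fold compound dilutions, top final concentration 100 nM.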

Sequence of ATM (Q13315 whole entry): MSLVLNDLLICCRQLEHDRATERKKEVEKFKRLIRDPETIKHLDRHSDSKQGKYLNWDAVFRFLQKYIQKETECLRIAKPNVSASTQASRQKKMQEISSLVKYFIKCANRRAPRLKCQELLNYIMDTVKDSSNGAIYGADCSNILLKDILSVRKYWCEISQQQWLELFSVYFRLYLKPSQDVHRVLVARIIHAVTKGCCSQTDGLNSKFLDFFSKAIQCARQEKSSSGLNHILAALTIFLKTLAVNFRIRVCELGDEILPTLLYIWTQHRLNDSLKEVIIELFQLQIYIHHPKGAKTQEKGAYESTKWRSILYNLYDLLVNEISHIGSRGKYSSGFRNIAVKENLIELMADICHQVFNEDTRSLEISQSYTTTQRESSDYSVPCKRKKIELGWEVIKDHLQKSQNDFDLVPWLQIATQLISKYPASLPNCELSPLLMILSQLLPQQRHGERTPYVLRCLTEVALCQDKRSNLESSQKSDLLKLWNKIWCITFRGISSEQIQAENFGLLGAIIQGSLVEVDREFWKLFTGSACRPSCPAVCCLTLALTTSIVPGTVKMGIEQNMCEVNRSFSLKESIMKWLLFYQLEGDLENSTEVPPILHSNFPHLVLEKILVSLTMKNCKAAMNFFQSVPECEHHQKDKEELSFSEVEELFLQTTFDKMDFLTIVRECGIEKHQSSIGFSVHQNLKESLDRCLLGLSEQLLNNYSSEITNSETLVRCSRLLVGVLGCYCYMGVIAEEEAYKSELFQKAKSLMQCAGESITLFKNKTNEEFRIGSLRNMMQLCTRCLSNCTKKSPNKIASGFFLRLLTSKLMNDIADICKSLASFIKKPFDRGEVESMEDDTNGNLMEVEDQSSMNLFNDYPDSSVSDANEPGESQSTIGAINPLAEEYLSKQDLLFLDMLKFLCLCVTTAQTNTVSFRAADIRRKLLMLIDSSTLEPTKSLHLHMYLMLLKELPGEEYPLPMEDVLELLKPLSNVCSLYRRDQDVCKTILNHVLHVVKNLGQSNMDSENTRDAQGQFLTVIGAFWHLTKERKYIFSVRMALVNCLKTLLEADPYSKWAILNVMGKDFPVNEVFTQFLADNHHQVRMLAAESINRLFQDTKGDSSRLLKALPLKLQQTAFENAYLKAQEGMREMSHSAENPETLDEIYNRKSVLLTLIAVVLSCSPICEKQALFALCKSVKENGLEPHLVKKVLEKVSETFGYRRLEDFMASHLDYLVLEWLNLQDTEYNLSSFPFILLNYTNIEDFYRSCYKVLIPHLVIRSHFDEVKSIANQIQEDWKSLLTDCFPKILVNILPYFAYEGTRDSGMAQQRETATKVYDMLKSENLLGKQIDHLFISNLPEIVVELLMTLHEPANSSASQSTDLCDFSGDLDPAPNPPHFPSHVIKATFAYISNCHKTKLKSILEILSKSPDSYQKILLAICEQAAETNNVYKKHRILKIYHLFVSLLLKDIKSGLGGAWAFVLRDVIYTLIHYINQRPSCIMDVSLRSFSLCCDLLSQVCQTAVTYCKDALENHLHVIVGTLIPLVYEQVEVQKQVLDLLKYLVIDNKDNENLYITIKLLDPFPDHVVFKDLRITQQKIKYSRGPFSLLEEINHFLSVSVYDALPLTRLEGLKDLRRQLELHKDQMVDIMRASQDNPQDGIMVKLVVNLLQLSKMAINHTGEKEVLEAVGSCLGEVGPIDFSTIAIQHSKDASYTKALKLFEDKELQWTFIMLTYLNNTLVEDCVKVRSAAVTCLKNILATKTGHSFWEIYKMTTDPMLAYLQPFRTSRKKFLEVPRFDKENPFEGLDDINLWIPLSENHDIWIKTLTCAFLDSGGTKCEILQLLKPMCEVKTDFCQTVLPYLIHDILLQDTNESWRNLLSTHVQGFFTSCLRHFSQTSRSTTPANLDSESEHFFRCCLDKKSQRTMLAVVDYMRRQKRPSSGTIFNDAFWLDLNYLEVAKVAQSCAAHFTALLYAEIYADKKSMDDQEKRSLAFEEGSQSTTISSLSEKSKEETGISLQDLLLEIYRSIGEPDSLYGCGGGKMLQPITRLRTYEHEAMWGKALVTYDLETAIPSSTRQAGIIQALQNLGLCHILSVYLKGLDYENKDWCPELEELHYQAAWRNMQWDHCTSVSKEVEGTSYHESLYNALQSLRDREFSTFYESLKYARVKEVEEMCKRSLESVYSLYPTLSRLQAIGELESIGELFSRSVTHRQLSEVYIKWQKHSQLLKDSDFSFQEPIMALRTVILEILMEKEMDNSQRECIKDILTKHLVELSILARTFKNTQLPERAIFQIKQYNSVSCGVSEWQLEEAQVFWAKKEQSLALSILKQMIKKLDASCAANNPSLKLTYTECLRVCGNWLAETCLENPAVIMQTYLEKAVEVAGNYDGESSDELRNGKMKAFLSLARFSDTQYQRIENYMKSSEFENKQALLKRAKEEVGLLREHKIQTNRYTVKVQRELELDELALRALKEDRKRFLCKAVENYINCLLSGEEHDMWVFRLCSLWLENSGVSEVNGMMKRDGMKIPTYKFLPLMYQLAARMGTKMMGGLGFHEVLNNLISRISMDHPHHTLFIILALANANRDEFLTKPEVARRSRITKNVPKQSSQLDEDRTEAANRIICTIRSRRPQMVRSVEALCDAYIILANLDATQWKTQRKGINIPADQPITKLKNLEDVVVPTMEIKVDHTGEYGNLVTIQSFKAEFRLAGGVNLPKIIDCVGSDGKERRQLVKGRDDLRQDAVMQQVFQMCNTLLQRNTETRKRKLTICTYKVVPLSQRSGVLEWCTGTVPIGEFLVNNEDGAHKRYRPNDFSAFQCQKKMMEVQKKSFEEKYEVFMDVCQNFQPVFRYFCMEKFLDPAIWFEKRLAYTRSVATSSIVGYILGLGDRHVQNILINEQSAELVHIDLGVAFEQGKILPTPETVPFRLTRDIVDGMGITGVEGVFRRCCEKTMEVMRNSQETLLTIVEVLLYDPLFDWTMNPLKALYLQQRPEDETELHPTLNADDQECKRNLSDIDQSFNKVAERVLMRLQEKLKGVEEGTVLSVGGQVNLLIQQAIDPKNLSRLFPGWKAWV

CNCCOc1ncc(-c2ccc3ncc4c(c3c2)C2(CCC2)C(=O)N4C)cc1NS(=O)(=O)c1ccccc1 [Example 250, N-(5-(3′-Methyl-2′-oxo-2′,3′-dihydrospiro[cyclobutane-1,1′-pyrrolo[2,3-c]quinolin]-8′-yl)-2-(2-(methylamino)ethoxy)pyridin-3-yl) benzenesulfonamide]
IC50 (ATM): 1 to 100 nM
IC50 (DNA-PK): < 0.5 nM

CN1C(=O)C2(CCC2)c2c1cnc1ccc(-c3cnc(N4CCC(N5CCCC(F)(F)C5)CC4)c(NS(C)(=O)=O)c3)cc21 [Example 251, N-(2-(3,3-Difluoro-[1,4′-bipiperidin]-1′-yl)-5-(3′-methyl-2′-oxo-2′,3′-dihydrospiro[cyclobutane-1,1′-pyrrolo[2,3-c]quinolin]-8′-yl)pyridin-3-yl)methanesulfonamide]
IC50 (ATM): 1 to 100 nM
IC50 (DNA-PK): 0.5 to 1 nM

CN1C(=O)C2(CCC2)c2c1cnc1ccc(-c3cnc(OCCCN4CCCCC4)c(NS(=O)(=O)c4cccnc4)c3)cc21 [Example 252, N-(5-(3′-Methyl-2′-oxo-2′,3′-dihydrospiro [cyclobutane-1,1′-pyrrolo [2,3-c]quinolin]-8′-yl)-2-(3-(piperidin-1-yl)propoxy)pyridin-3-yl)pyridine-3-sulfonamide]
IC50 (ATM): 1 to 100 nM
IC50 (DNA-PK): 1 to 100 nM

CN(C)CCCOc1ncc(-c2ccc3ncc4c(c3c2)C2(CCC2)C(=O)N4C)cc1NS(=O)(=O)C1CCC1 [Example 253, N-(2-(3-(Dimethylamino)propoxy)-5-(3′-methyl-2′-oxo-2′,3′-dihydrospiro [cyclobutane-1,1′-pyrrolo[2,3-c]quinolin]-8′-yl)pyridin-3-yl) cyclobutanesulfonamide]
IC50 (ATM): 1 to 100 nM
IC50 (DNA-PK): 1 to 100 nM

CC(C)NCCOc1ncc(-c2ccc3ncc4c(c3c2)C2(CCCC2)C2=NCCN24)cc1NS(C)(=O)=O [Example 257, N-(5-(8′,9′-Dihydrospiro[cyclopentane-1,11′-imidazo[1′,2′:1,5]pyrrolo[2.3-c]quinolin]-2′-yl)-2-(2-(isopropylamino)ethoxy)pyridin-3-yl)methanesulfonamide]
IC50 (ATM): 1 to 100 nM
IC50 (DNA-PK): < 0.5 nM

CN(C)CCCOc1ncc(-c2ccc3ncc4c(c3c2)C2(CC(F)C2)C(=O)N4C)cc1NS(C)(=O)=O (stereo not shown) [Example 262, N-(2-(3-(Dimethylamino)propoxy)-5-(3-fluoro-3′-methyl-2′-oxo-2′,3′-dihydrospiro[cyclobutane-1,1′-pyrrolo[2,3-c]quinolin]-8′-yl)pyridin-3-yl)methanesulfonamide]
IC50 (ATM): 1 to 100 nM
IC50 (DNA-PK): 1 to 100 nM

CN(C)CCCOc1ncc(-c2ccc3ncc4c(c3c2)C2(CCC2)C(=O)N4C)cc1NS(=O)(=O)CCN(C)C [Example 264, 2-(Dimethylamino)-N-(2-(3-(dimethylamino)propoxy)-5-(3′-methyl-2′-oxo-2′,3′-dihydrospiro[cyclobutane-1,1′-pyrrolo[2,3-c]quinolin]-8′-yl)pyridin-3-yl)ethane-1-sulfonamide]
IC50 (ATM): 0.5 to 1 nM
IC50 (DNA-PK): 1 to 100 nM

COCCS(=O)(=O)Nc1cc(-c2ccc3ncc4c(c3c2)C2(CCC2)C(=O)N4C)cnc1OCCCN(C)C [Example 266, N-(2-(3-(Dimethylamino)propoxy)-5-(3′-methyl-2′-oxo-2′,3′-dihydrospiro [cyclobutane-1,1′-pyrrolo[2,3-c]quinolin]-8′-yl)pyridin-3-yl)-2-methoxyethane-1-sulfonamide]
IC50 (ATM): 1 to 100 nM
IC50 (DNA-PK): 1 to 100 nM

CN(C)CCCOc1ncc(-c2ccc3ncc4c(c3c2F)C2(CCC2)C(=O)N4C)cc1NS(C)(=O)=O [Example 268, N-(2-(3-(Dimethylamino)propoxy)-5-(9′-fluoro-3′-methyl-2′-oxo-2′,3′-dihydrospiro[cyclobutane-1,1′-pyrrolo[2,3-c]quinolin]-8′-yl)pyridin-3-yl)methanesulfonamide]
IC50 (ATM): 1 to 100 nM
IC50 (DNA-PK): 1 to 100 nM

CN1C(=O)C2(CCC2)c2c1cnc1ccc(-c3cnc(OCCCN4CCCC(O)C4)c(NS(C)(=O)=O)c3)cc21 (stereo not shown) [Example 270, N-(2-(3-(3-Hydroxypiperidin-1-yl)propoxy)-5-(3′-methyl-2′-oxo-2′,3′-dihydrospiro[cyclobutane-1,1′-pyrrolo[2,3-c]quinolin]-8′-yl)pyridin-3-yl)methanesulfonamide]
IC50 (ATM): 1 to 100 nM
IC50 (DNA-PK): 1 to 100 nM

CN(C)CCCOc1ncc(-c2ccc3ncc4c(c3c2)C2(CCC2)C(=O)N4C)cc1NS(=O)(=O)c1ccsc1 [Example 272, N-(2-(3-(Dimethylamino)propoxy)-5-(3′-methyl-2′-oxo-2′,3′-dihydrospiro [cyclobutane-1,1′-pyrrolo[2,3-c]quinolin]-8′-yl)pyridin-3-yl) thiophene-3-sulfonamide]
IC50 (ATM): 0.5 to 1 nM
IC50 (DNA-PK): 1 to 100 nM

CN(C)CCCOc1ncc(-c2ccc3ncc4c(c3c2)C2(CCC2)C(=O)N4C)cc1NS(=O)(=O)CC#N [Example 273, 1-Cyano-N-(2-(3-(dimethylamino)propoxy)-5-(3′-methyl-2′-oxo-2′,3′-dihydrospiro[cyclobutane-1,1′-pyrrolo[2,3-c]quinolin]-8′-yl)pyridin-3-yl)methanesulfonamide]
IC50 (ATM): 1 to 100 nM
IC50 (DNA-PK): < 0.5 nM

CN1C(=O)C2(CCC2)c2c1cnc1ccc(-c3cnc(N4CC(N5CCCC5)C4)c(NS(C)(=O)=O)c3)cc21 [Example 277, N-(5-(3′-Methyl-2′-oxo-2′,3′-dihydrospiro[cyclobutane-1,1′-pyrrolo[2,3-c]quinolin]-8′-yl)-2-(3-(pyrrolidin-1-yl)azetidin-1-yl)pyridin-3-yl)methanesulfonamide]
IC50 (ATM): 1 to 100 nM
IC50 (DNA-PK): 1 to 100 nM

COCCN(C)CCCOc1ncc(-c2ccc3ncc4c(c3c2)C2(CCC2)C(=O)N4C)cc1NS(C)(=O)=O [Example 278, N-(2-(3-((2-Methoxyethyl)(methyl)amino)propoxy)-5-(3′-methyl-2′-oxo-2′,3′-dihydrospiro[cyclobutane-1,1′-pyrrolo[2,3-c]quinolin]-8′-yl)pyridin-3-yl)methanesulfonamide]
IC50 (ATM): 0.5 to 1 nM
IC50 (DNA-PK): 1 to 100 nM

CN1C(=O)C2(CCC2)c2c1cnc1ccc(-c3cnc(OCCCN4CCC(F)C4)c(NS(C)(=O)=O)c3)cc21 (stereo not shown) [Example 279, N-(2-(3-(3-Fluoropyrrolidin-1-yl)propoxy)-5-(3′-methyl-2′-oxo-2′,3′-dihydrospiro[cyclobutane-1,1′-pyrrolo[2,3-c]quinolin]-8′-yl)pyridin-3-yl)methanesulfonamide]
IC50 (ATM): 1 to 100 nM
IC50 (DNA-PK): 0.5 to 1 nM

COC1CCCN(CCCOc2ncc(-c3ccc4ncc5c(c4c3)C3(CCC3)C(=O)N5C)cc2NS(C)(=O)=O)C1 (stereo not shown) [Example 280, N-(2-(3-(3-Methoxypiperidin-1-yl)propoxy)-5-(3′-methyl-2′-oxo-2′,3′-dihydrospiro[cyclobutane-1,1′-pyrrolo[2,3-c]quinolin]-8′-yl)pyridin-3-yl)methanesulfonamide]
IC50 (ATM): 1 to 100 nM
IC50 (DNA-PK): 0.5 to 1 nM

CC(C)NCCOc1ncc(-c2ccc3ncc4c(c3c2)C2(CCC2)C(=O)N4C)cc1NS(C)(=O)=O [Example 281, N-(2-(2-(Isopropylamino)ethoxy)-5-(3′-methyl-2′-oxo-2′,3′-dihydrospiro [cyclobutane-1,1′-pyrrolo[2,3-c]quinolin]-8′-yl)pyridin-3-yl)methanesulfonamide]
IC50 (ATM): 1 to 100 nM
IC50 (DNA-PK): 0.5 to 1 nM

CN1C(=O)C2(CCC2)c2c1cnc1ccc(-c3cnc(OCCCN4CCCC(F)C4)c(NS(C)(=O)=O)c3)cc21 (stereo not shown) [Example 282, N-(2-(3-(3-Fluoropiperidin-1-yl)propoxy)-5-(3′-methyl-2′-oxo-2′,3′-dihydrospiro[cyclobutane-1,1′-pyrrolo[2,3-c]quinolin]-8′-yl)pyridin-3-yl)methanesulfonamide]
IC50 (ATM): 1 to 100 nM
IC50 (DNA-PK): < 0.5 nM

COC1CCN(CCCOc2ncc(-c3ccc4ncc5c(c4c3)C3(CCC3)C(=O)N5C)cc2NS(C)(=O)=O)C1 (stereo not shown) [Example 283, N-(2-(3-(3-Methoxypyrrolidin-1-yl)propoxy)-5-(3′-methyl-2′-oxo-2′,3′-dihydrospiro[cyclobutane-1,1′-pyrrolo[2,3-c]quinolin]-8′-yl)pyridin-3-yl)methanesulfonamide]
IC50 (ATM): 1 to 100 nM
IC50 (DNA-PK): 0.5 to 1 nM

CN1CCC(c2ncc(-c3ccc4ncc5c(c4c3)C3(CCC3)C(=O)N5C)cc2NS(C)(=O)=O)CC1 [Example 285, N-(5-(3′-Methyl-2′-oxo-2′,3′-dihydrospiro[cyclobutane-1,1′-pyrrolo[2,3-c]quinolin]-8′-yl)-2-(1-methylpiperidin-4-yl)pyridin-3-yl)methanesulfonamide]
IC50 (ATM): 1 to 100 nM
IC50 (DNA-PK): 1 to 100 nM

CN1C(=O)C2(CCC2)c2c1cnc1ccc(-c3cnc(OCCCN4CCC(F)CC4)c(NS(C)(=O)=O)c3)cc21 [Example 286, N-(2-(3-(4-Fluoropiperidin-1-yl)propoxy)-5-(3′-methyl-2′-oxo-2′,3′-dihydrospiro[cyclobutane-1,1′-pyrrolo[2,3-c]quinolin]-8′-yl)pyridin-3-yl)methanesulfonamide]
IC50 (ATM): 1 to 100 nM
IC50 (DNA-PK): < 0.5 nM

CN1C(=O)C2(CCC2)c2c1cnc1ccc(-c3cnc(OCC(O)CN4CCCCC4)c(NS(C)(=O)=O)c3)cc21 (stereo not shown) [Example 287, N-(2-(2-Hydroxy-3-(piperidin-1-yl)propoxy)-5-(3′-methyl-2′-oxo-2′,3′-dihydrospiro[cyclobutane-1,1′-pyrrolo[2,3-c]quinolin]-8′-yl)pyridin-3-yl)methanesulfonamide]
IC50 (ATM): 1 to 100 nM
IC50 (DNA-PK): < 0.5 nM

CN1C(=O)C2(CCC2)c2c1cnc1ccc(-c3cnc(N4CC(N(C)C)C4)c(NS(=O)(=O)N(C)C)c3)cc21 [Example 288, 8′-(6-[3-(Dimethylamino)azetidin-1-yl]-5-[(dimethylsulfamoyl)amino]pyridin-3-yl}-3′-methyl-2′,3′-dihydrospiro [cyclobutane-1,1′-pyrrolo[2,3-c]quinoline]-2′-one]
IC50 (ATM): 1 to 100 nM
IC50 (DNA-PK): 0.5 to 1 nM
